Target: T1, APOL1 (Homo sapiens, UniProt O14791)
T1 sequence (O14791 1-398 S342G/I384M): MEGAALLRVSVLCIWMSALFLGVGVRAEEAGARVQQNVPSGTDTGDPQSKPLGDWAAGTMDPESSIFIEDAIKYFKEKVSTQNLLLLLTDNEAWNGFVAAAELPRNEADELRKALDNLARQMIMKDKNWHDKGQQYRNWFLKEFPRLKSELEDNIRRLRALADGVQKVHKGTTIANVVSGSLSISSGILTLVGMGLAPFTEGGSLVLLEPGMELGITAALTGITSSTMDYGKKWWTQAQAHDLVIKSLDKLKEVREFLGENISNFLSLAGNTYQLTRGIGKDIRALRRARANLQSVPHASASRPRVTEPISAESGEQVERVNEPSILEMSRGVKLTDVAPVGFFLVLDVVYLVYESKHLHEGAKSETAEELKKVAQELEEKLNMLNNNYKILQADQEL
Assay: MultiTox-Fluor Multiplex Cytotoxicity Assay in tet-inducible APOL1 T-REx-HEK293 cells (cell rescue, ratio of dead to live cells)
Format: cell-based
Settings: tet-inducible transgenic APOL1 T-REx-HEK293 cell lines, 50 ng/mL tet, 24 hours; read-out: IP50 (i.e., IC50 for cell proliferation)
Summary of the method: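 T-REx-HEK293 cells with tet-inducible APOL1 were treated with compound (10 μM top, 10-point 3-fold dilution, duplicate) plus 50 ng/mL tetracycline for 24 h at 37° C, in DMEM with 2% tet-free FBS. MultiTox-Fluor protease signals gave a dead/live ratio, normalized to no tet (100% viability) and tet alone (0%).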

`CCc1cc2c(s1)CCO[C@@]21CCN(Cc2cnc(N[C@H]3CCNC3=O)nc2)[C@@H](C)C1` [Compound 207] and `CCc1cc2c(s1)CCO[C@@]21CCN(Cc2cnc(NC(CO)CO)nc2)[C@@H](C)C1` [Compound 222] cannot be ordered by IC50: < 100 nM for the first, < 100 nM for the second.

`C[C@H]1C[C@@]2(CCN1Cc1cnn(CC(O)CC3(C#N)CC3)c1)OCCc1c2sc(C(F)(F)F)c1CO` (some centres unmarked) [Compound 950] and `C[C@H]1C[C@@]2(CCN1Cc1cnn(C[C@@H]3CCC(=O)N3)c1)OCCc1c2sc(C(F)(F)F)c1CO` [Compound 922] cannot be ordered by IC50: < 100 nM for the first, < 100 nM for the second.

First: CCc1cc2c(s1)CCOC21CCN(Cc2cn(CC3CNC(=O)O3)nn2)CC1 (centres unmarked) [Compound 1118]
Second: CCc1cc2c(s1)CCO[C@@]21CCN(Cc2cn(CC3COCCN3)nn2)[C@@H](C)C1 (some centres unmarked) [Compound 95]
The IC50 of the first is higher: 500 to 1000 nM for the first, < 100 nM for the second.

Compared with `CC(C)NC(=O)Cn1cc(CN2CC[C@]3(C[C@@H]2C)OCCc2c3sc(C(F)(F)F)c2CO)cn1` [Compound 909], `C[C@H]1C[C@@]2(CCN1Cc1cnn(C)c1)OCCc1cc(CO)sc12` [Compound 1018, [(2′S, 7R)-2′-methyl-1′-[(1-methylpyrazol-4-yl)methyl]spiro[4,5-dihydrothieno[2,3-c]pyran-7,4′-piperidine]-2-yl]methanol] is higher in IC50: < 100 nM for the first, 100 to 500 nM for the second. The first is the more potent here.

First: CCc1cc2c(s1)CCOC21CCN(Cc2ccc(OC)nc2)CC1 [Compound 1157]
Second: CCc1cc2c(s1)CCO[C@@]21CCN(Cc2ccc(N[C@H]3COC[C@@H]3O)nc2)[C@@H](C)C1 [Compound 212]
The IC50 of the first is higher: 100 to 500 nM for the first, < 100 nM for the second. The second is the more potent here.

First: C[C@H]1C[C@@]2(CCN1Cc1cnc(N[C@H]3CC[C@H](O)CC3)nc1)OCC(O)c1cc(Cl)sc12 (mixture of isomers) [Compound 825, (2′S, 7R)-2-chloro-1′-[[2-[(4-hydroxycyclohexyl)amino]pyrimidin-5-yl]methyl]-2′-methyl-spiro[4,5-dihydrothieno[2,3-c]pyran-7,4′-piperidine]-4-ol]
Second: C[C@H]1C[C@@]2(CCN1Cc1ccc(C#N)nc1)OCCc1cc(Cl)sc12 [Compound 667]
The IC50 of the first is lower: < 100 nM for the first, 100 to 500 nM for the second. The first is the more potent here.

`C[C@H]1C[C@@]2(CCN1Cc1cn(CC(O)C(C)(C)O)nn1)OC[C@@](O)(C(F)F)c1cc(Cl)sc12` (stereo partly drawn) [Compound 836, 1-[4-[[(2′S,4R,7R)-2-chloro-4-(difluoromethyl)-4-hydroxy-2′-methyl-spiro[5H-thieno[2,3-c]pyran-7,4′-piperidine]-1′-yl]methyl]triazol-1-yl]-3-methyl-butane-2,3-diol] and `C[C@H]1C[C@@]2(CCN1Cc1cn(CCS(C)(=O)=O)nn1)OCCc1sc(C(F)F)cc12` [Compound 524, (2′S,4R)-2-(difluoromethyl)-2′-methyl-1′-[[1-(2-methylsulfonylethyl)triazol-4-yl]methyl]spiro[6,7-dihydrothieno[3,2-c]pyran-4,4′-piperidine]] cannot be ordered by IC50: < 100 nM for the first, < 100 nM for the second.

First: C[C@H]1C[C@@]2(CCN1Cc1cnn(Cc3cccnc3)c1)OCCc1cc(Cl)sc12 [Compound 701]
Second: C[C@H]1C[C@@]2(CCN1CC(F)F)OCCc1cc(CC(F)F)sc12 [Compound 616]
The IC50 of the first is lower: < 100 nM for the first, 500 to 1000 nM for the second. The first is the more potent here.

First: CCc1cc2c(s1)CCO[C@@]21CCN(CC2CC(NC(=O)CCCCCOCCOCCOCCOCCCCCCCl)C2)[C@@H](C)C1 (stereo partly drawn) [Compound 385, 6-[2-[2-[2-(6-chlorohexoxy)ethoxy]ethoxy]ethoxy]-N-[3-[[(2′S,4R)-2-ethyl-2′-methyl-spiro[6,7-dihydrothieno[3,2-c]pyran-4,4′-piperidine]-1′-yl]methyl]cyclobutyl]hexanamide]
Second: CCc1cc2c(s1)CCO[C@@]21CCN(C[C@H]2C[C@@H](NC(=O)Oc3ccc(F)cc3)C2)[C@@H](C)C1 [Compound 377]
The IC50 of the first is higher: 100 to 500 nM for the first, < 100 nM for the second. The second is the more potent here.

First: CCc1cc2c(s1)CCO[C@@]21CCN(C[C@H]2C[C@@H](NC(=O)C3CC3c3ccc(F)cc3)C2)[C@@H](C)C1 (some centres unmarked) [Compound 323]
Second: CCc1cc2c(s1)CCO[C@@]21CCN(Cc2cn(CC3CCC4(CC3)COC4)nn2)[C@@H](C)C1 [Compound 78]
The IC50 of the first is lower: < 100 nM for the first, 100 to 500 nM for the second.
